Laboratory results reported in patent US11780901B2, “Analogues of parathyroid hormone (1-34) that function as agonists of the parathyroid hormone receptor-1 and display modified activity profiles” (Wisconsin Alumni Research Foundation, priority 2013, dated 2023).
Read-outs that look alike come from different tables or passages of the source.

Assays:
PTHR1 [1] = assay: β-arr2 | pEC50
PTHR1 [2] = assay: β-arr1 | pEC50
PTHR1 [3] = assay: cAMP | pEC50
Source text: Table printed on a drawing sheet, FIG. 5
(§1) Head of the field: cAMP | pEC50
The patent's description of the figure: FIG. 5 depicts graphs and a corresponding table reporting the EC50 and Emax of PTHR1 agonists Ligands 8-13 (SEQ. ID. NOS: 8-13) for cAMP signaling and β-arrestin (βarr) recruitment.
First copying reader's note: Each value cell carries its own ± error; the rows for Ligand 8, 10 and 12 are printed on dark shading.
Where the first naming reader finds the target: description_of_the_figure: EC50 and Emax of PTHR1 agonists Ligands 8-13 (SEQ. ID. NOS: 8-13) for cAMP signaling and β-arrestin (βarr) recruitment.

PTHR1 [4] = assay: β-arr2 | pEC50; remark: listed apart in the source
PTHR1 [5] = assay: β-arr1 | pEC50; remark: listed apart in the source
PTHR1 [6] = assay: cAMP | pEC50; remark: listed apart in the source
Source text: Table printed on a drawing sheet, FIG. 2
as §1
First copying reader's note: The error (±) stands inside the result cells.

Substance: SVSEIQL^nLHNLGKHLNSMERVEWLRKKLQDVHNF (SVSEIQLXHNLGKHLNSMERVEWLRKKLQDVHNF; (R)-beta2-Nle at position 8; MOD_RES (8)..(8) X at position 8 is (R)-Beta-2-Norleucine.) [Ligand 11]
- β-arr2 | pEC50 (PTHR1 [1]): 8.28 ± 0.02
- β-arr1 | pEC50 (PTHR1 [2]): 8.33 ± 0.05
- cAMP | pEC50 (PTHR1 [3]): 9.03 ± 0.10

Substance: BA058: also known as abaloparatide
- β-arr2 | pEC50 (PTHR1 [4]): 8.52 ± 0.06
- β-arr1 | pEC50 (PTHR1 [5]): 8.38 ± 0.12
- cAMP | pEC50 (PTHR1 [6]): 10.05 ± 0.05

Substance: LA-PTH: long-acting PTH analog (AVAEIQLMHQRAKWIQDARRRAFLHKLIAEIHTAEI; Long-acting (LA)-PTH, a parathyroid hormone analog)
- β-arr2 | pEC50 (PTHR1 [4]): 8.20 ± 0.06
- β-arr1 | pEC50 (PTHR1 [5]): 8.16 ± 0.06
- cAMP | pEC50 (PTHR1 [6]): 9.06 ± 0.06

Substance: Ligand 13: PTH(1-34) analogue with replaced residue at position 8 (character image) (SVSEIQLXHNLGKHLNSMERVEWLRKKLQDVHNF; non-natural residue at position 8; MOD_RES (8)..(8) X at position 8 is (S*)-Beta-2-Norleucine)
- β-arr2 | pEC50 (PTHR1 [1]): 8.16 ± 0.09
- β-arr1 | pEC50 (PTHR1 [2]): 8.03 ± 0.10
- cAMP | pEC50 (PTHR1 [3]): 9.44 ± 0.08
